Reference: US11279733B2, “Peptide antibiotics” (priority 2017, dated 2022)
Values after ≈ are worked out from the molar mass of the structure shown. Positions of bridges follow the written chain, without caps; N, C: chain ends. Non-standard residues stand in square brackets, D forms with d. Residues, ends and D or L forms follow the SMILES beside them. *: point of attachment. Decanoyl(3R-OH) = CCCCCCC[C@@H](O)CC(=O)*; Heptanoyl(6-Me) = CC(C)CCCCC(=O)*; dDab = NCC[C@@H](N)C(=O)O; dDap = NC[C@@H](N)C(=O)O; Dab = NCC[C@H](N)C(=O)O

Legend:
bacterial strains = test: Potentiation/synergy antimicrobial assay (checkerboard, FICI) with antibiotics; format: cell-based; settings: for MIC of antibiotic with 6442 at concn 0: 6442 0 μg/mL; for MIC of antibiotic with 8980 at conc 0: 8980 0 μg/mL; for MIC of antibiotic with 8980 at conc 1: 8980 1 μg/mL; for MIC of antibiotic with 8981 at conc 0: 8981 0 μg/mL; for MIC of antibiotic with 8981 at conc 1: 8981 1 μg/mL; for MIC of antibiotic with 8981 at conc 2: 8981 2 μg/mL; for MIC of antibiotic with 8981 at conc 4: 8981 4 μg/mL; for MIC of antibiotic with OctC4 at concn 0: OctC4 0 μg/mL; for MIC of antibiotic with OctC4 at concn 0.125: OctC4 0.125 μg/mL
Experimental: Potentiation/synergy antimicrobial assays were conducted in the same manner as the standard MICs described above, with the following modifications. Assays were performed in 384-well non-binding surface plates (NBS; Corning 3460) and in Cation-adjusted Mueller Hinton Broth (CA-MHB; BD, Cat. No. 212322) with a final assay volume of 50 μL once bacteria was added at 5×10^5 CFU/mL. Antibiotics and octapeptin compounds were plated in duplicate as a 2-fold concentration series, in a matrix checkerboard format. The bacterial cell density of the resultant assay plates after 18-20 h incubation at 37° C. was read by optical density 600 nm (OD600) using a Tecan M1000 Pro Spectrophotometer, and analysed for ≥90% growth inhibition compared to the growth control to determine active concentrations. Synergistic effect was calculated based on the fractional inhibitory concentration index (FICI) by the following equation, where synergy is deemed FICI 0.5: […]

A. baumannii ATCC 19606 = settings: ATCC 19606
Summary of the method: (§1)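 Mid-log cultures grown in Mueller Hinton broth at 37° C were tested by 2-fold broth microdilution at 5×10^5 CFU/mL final. Compounds were dissolved in water and tested over a final range of 32 to 0.015 μg/mL.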

A. baumannii GN_093 PmxR = settings: GN 093 PmxR
Summary of the method: as §1

E. coli ATCC 25922 = settings: ATCC 25922
Summary of the method: as §1

K. pneumoniae ATCC 13883 = settings: ATCC 13883
Summary of the method: as §1

[1] = test system: K. pneumoniae ATCC 700603, MDR; settings: ATCC 700603
Summary of the method: as §1

[2] = test system: K. pneumoniae ATCC BAA-2146, NDM-1 pos; settings: ATCC BAA-2146
Summary of the method: as §1

[3] = test system: K. pneumoniae GN_102 PmxR; settings: GN 102 PmxR
Summary of the method: as §1

[4] = test system: K. pneumoniae GN_106, PmxR; settings: GN 106, PmxR
Summary of the method: as §1

P. aeruginosa ATCC 27853 = settings: ATCC 27853
Summary of the method: as §1

[5] = test system: P. aeruginosa GN_043, PmxR; settings: P. aeruginosa GN_043, PmxR
Summary of the method: as §1

[6] = test system: P. aeruginosa GN_105, PmxR; settings: GN 105, PmxR
Summary of the method: as §1

in vitro = settings: human
Experimental: Cytotoxicity of the synthesised peptides was evaluated by comparison with commercially available colistin (polymyxin E), polymyxin B (Sigma chemical Co., St. Louis, Mo., U.S.A.) and synthetic octapeptin C4 by conducting lactate dehydrogenase (LDH) assay. CC50 values calculated based on curve fitting of dose dependent inhibition of cell growth represented the cytotoxicity of the peptide. Human kidney 2 (HK2) cells were seeded as 2000 cells per well in a 384 well cell culture plate in a final volume of 20 μL in DMEM/F12 medium (Invitrogen #11330057), in which 10% of FBS was added. Cells were incubated for 24 hours at 37° C., 5% CO2 to allow cells to attach to the plates. Similar conditions were employed for HEK293 and HepG2 cytotoxicity assays.
Cytotoxicity to HEK293 and HepG2 cells was determined using the resazurin assay (McMillian, M. K.; Li, L.; Parker, J. B.; Patel, L.; Zhong, Z.; Gunnett, J. W.; Powers, W. J.; Johnson, M. D. An improved resazurin-based cytotoxicity assay for hepatic cells; Cell Biol. Toxicol. 2002, 18, 157-173; O'Brien, J.; Wilson, I.; Orton, T.; Pognan, F. Investigation of the Alamar Blue (resazurin) fluorescent dye for the assessment of mammalian cell cytotoxicity. Eur. J. Biochem. 2000, 267, 5421-5426). In brief, HEK293 and HepG2 cells were seeded at 4000 cells/well in black-wall, clear-bottom 384-well plates (Corning, Australia) and incubated for 24 h at 37° C., 5% CO2. Compounds were then added into each well. After 24 h incubation, 5 μM resazurin was added per well and incubated at 37° C. for 2 h. Fluorescence intensity was then read using a Polarstar Omega with excitation/emission 560/590. The data was then analyzed using GraphPad Prism 6 software. CC50 values were determined using GraphPad Prism 6 software (Inc. La Jolla, Calif.).

## CO[C@H]1/C=C/O[C@@]2(C)Oc3c(C)c(O)c4c(O)c(c(/C=N/N5CCN(C)CC5)c(O)c4c3C2=O)NC(=O)/C(C)=C\C=C\[C@H](C)[C@H](O)[C@@H](C)[C@@H](O)[C@@H](C)[C@H](OC(C)=O)[C@@H]1C [Rifampicin, rifampicin]
Bacterial strains; GN_102 K. pneumoniae XDR/PmxR
  MIC of antibiotic with 6442 at concn 0: 32 µg/mL
  MIC of antibiotic with 8980 at conc 0: 32 µg/mL
  MIC of antibiotic with 8980 at conc 1: 16 µg/mL
  MIC of antibiotic with 8981 at conc 0: 32 µg/mL
  MIC of antibiotic with 8981 at conc 1: 16 to 32 µg/mL
  MIC of antibiotic with 8981 at conc 2: 16 µg/mL
  MIC of antibiotic with 8981 at conc 4: 8 to 16 µg/mL
  MIC of antibiotic with OctC4 at concn 0: 32 µg/mL
  MIC of antibiotic with OctC4 at concn 0.125: 32 µg/mL
Bacterial strains; GN_102 K. pneumoniae XDR/PmxR, 6442 0.125 μg/mL
  MIC of antibiotic with 6442 at concn 0.125: 16 µg/mL
Bacterial strains; GN_102 K. pneumoniae XDR/PmxR, OctC4 0.0625 μg/mL
  MIC of antibiotic with OctC4 at concn 0.0625: 32 µg/mL
Bacterial strains; GN_181 E. coli mcr-1
  MIC of antibiotic with 6442 at concn 0: 32 µg/mL
  MIC of antibiotic with 8980 at conc 0: 32 µg/mL
  MIC of antibiotic with 8980 at conc 1: 32 µg/mL
  MIC of antibiotic with 8981 at conc 0: 32 µg/mL
  MIC of antibiotic with 8981 at conc 1: 32 µg/mL
  MIC of antibiotic with 8981 at conc 2: 32 µg/mL
  MIC of antibiotic with 8981 at conc 4: 32 µg/mL
  MIC of antibiotic with OctC4 at concn 0: 32 µg/mL
Bacterial strains; GN_181 E. coli mcr-1, 6442 0.25 μg/mL
  MIC of antibiotic with 6442 at concn 0.25: 0.25 µg/mL
Bacterial strains; GN_181 E. coli mcr-1, 8980 2 μg/mL
  MIC of antibiotic with 8980 at conc 2: 32 µg/mL
Bacterial strains; GN_181 E. coli mcr-1, 8980 4 μg/mL
  MIC of antibiotic with 8980 at conc 4: 32 µg/mL

## CCCCCCC[C@@H](O)CC(=O)N[C@H](CCN)C(=O)N[C@H]1CCNC(=O)[C@H](CC(C)C)NC(=O)[C@H](CCN)NC(=O)[C@H](CCN)NC(=O)[C@H]([C@@H](C)O)NC(=O)[C@@H](Cc2ccccc2)NC(=O)[C@H](CCN)NC1=O [compound 9289, 3(R)OH-nC9CO-D-Dab-cyc[L-Dab-L-Dab-D-Phe-L-Thr-L-Dab-L-Dab-L-Leu]] ({Decanoyl(3R-OH)}-[dDab][Dab][Dab][dF]T[Dab][Dab]L; lactam 2-C)
A. baumannii ATCC 19606
  MIC A. baumannii ATCC 19606: 2 µg/mL (≈ 1.94 µM)
A. baumannii GN_093 PmxR
  MIC A. baumannii GN_093 PmxR: >32 µg/mL
E. coli ATCC 25922
  MIC E. coli ATCC 25922: 2 µg/mL (≈ 1.94 µM)
K. pneumoniae ATCC 13883
  MIC K. pneumoniae ATCC 13883: 2 µg/mL (≈ 1.94 µM)
[1]
  MIC K. pneumoniae ATCC 700603, MDR: 1 µg/mL (≈ 0.969 µM)
[2]
  MIC K. pneumoniae ATCC BAA-2146, NDM-1 pos: 2 µg/mL (≈ 1.94 µM)
[3]
  MIC K. pneumoniae GN_102 PmxR: >32 µg/mL
[4]
  MIC K. pneumoniae GN_106, PmxR: >32 µg/mL
P. aeruginosa ATCC 27853
  MIC P. aeruginosa ATCC 27853: 1 µg/mL (≈ 0.969 µM)
[5]
  MIC P. aeruginosa GN_043, PmxR: >32 µg/mL
[6]
  MIC P. aeruginosa GN_105, PmxR: >32 µg/mL
In vitro
  CC50 at 24 h: > 300 µM

## CC(C)CCCCC(=O)N[C@H](CCN)C(=O)N[C@H]1CCNC(=O)[C@H](CC(C)C)NC(=O)[C@H](CCN)NC(=O)[C@H](CCN)NC(=O)[C@H](CC(C)C)NC(=O)[C@@H](Cc2ccccc2)NC(=O)[C@H](CCN)NC1=O [compound 9290, 6Me-nC6CO-D-Dab-cyc[L-Dab-L-Dab-D-Phe-L-Leu-L-Dab-L-Dab-L-Leu]] ({Heptanoyl(6-Me)}-[dDab][Dab][Dab][dF]L[Dab][Dab]L; lactam 2-C)
A. baumannii ATCC 19606
  MIC A. baumannii ATCC 19606: 16 µg/mL (≈ 16 µM)
A. baumannii GN_093 PmxR
  MIC A. baumannii GN_093 PmxR: 16 µg/mL (≈ 16 µM)
E. coli ATCC 25922
  MIC E. coli ATCC 25922: 8 µg/mL (≈ 8 µM)
K. pneumoniae ATCC 13883
  MIC K. pneumoniae ATCC 13883: 8 µg/mL (≈ 8 µM)
[1]
  MIC K. pneumoniae ATCC 700603, MDR: 4 µg/mL (≈ 4 µM)
[2]
  MIC K. pneumoniae ATCC BAA-2146, NDM-1 pos: 4 µg/mL (≈ 4 µM)
[3]
  MIC K. pneumoniae GN_102 PmxR: 4 µg/mL (≈ 4 µM)
[4]
  MIC K. pneumoniae GN_106, PmxR: 4 µg/mL (≈ 4 µM)
P. aeruginosa ATCC 27853
  MIC P. aeruginosa ATCC 27853: 2 µg/mL (≈ 2 µM)
[5]
  MIC P. aeruginosa GN_043, PmxR: 1 µg/mL (≈ 1 µM)
[6]
  MIC P. aeruginosa GN_105, PmxR: 16 µg/mL (≈ 16 µM)
In vitro
  CC50 at 24 h: > 300 µM

## CCCCCCC[C@@H](O)CC(=O)N[C@H](CN)C(=O)N[C@H]1CCNC(=O)[C@H](CC(C)C)NC(=O)[C@H](CCN)NC(=O)[C@H](CCN)NC(=O)[C@H](C(C)C)NC(=O)[C@@H](Cc2ccccc2)NC(=O)[C@H](CCN)NC1=O [compound 9291, 3(R)OH-nC9CO-D-Dap-cyc[L-Dab-L-Dab-D-Phe-L-Val-L-Dab-L-Dab-L-Leu]] ({Decanoyl(3R-OH)}-[dDap][Dab][Dab][dF]V[Dab][Dab]L; lactam 2-C)
A. baumannii ATCC 19606
  MIC A. baumannii ATCC 19606: >32 µg/mL
A. baumannii GN_093 PmxR
  MIC A. baumannii GN_093 PmxR: 32 µg/mL (≈ 31.5 µM)
E. coli ATCC 25922
  MIC E. coli ATCC 25922: 2 µg/mL (≈ 1.97 µM)
K. pneumoniae ATCC 13883
  MIC K. pneumoniae ATCC 13883: 8 µg/mL (≈ 7.87 µM)
[1]
  MIC K. pneumoniae ATCC 700603, MDR: 8 µg/mL (≈ 7.87 µM)
[2]
  MIC K. pneumoniae ATCC BAA-2146, NDM-1 pos: 8 µg/mL (≈ 7.87 µM)
[3]
  MIC K. pneumoniae GN_102 PmxR: 32 µg/mL (≈ 31.5 µM)
[4]
  MIC K. pneumoniae GN_106, PmxR: 32 µg/mL (≈ 31.5 µM)
P. aeruginosa ATCC 27853
  MIC P. aeruginosa ATCC 27853: 2 µg/mL (≈ 1.97 µM)
[5]
  MIC P. aeruginosa GN_043, PmxR: 2 µg/mL (≈ 1.97 µM)
[6]
  MIC P. aeruginosa GN_105, PmxR: 32 µg/mL (≈ 31.5 µM)
In vitro
  CC50 at 24 h: > 300 µM

## arenicin-3
Bacterial strains; GN_043 P. aeruginosa PmxR
  MIC of antibiotic with OctC4 at concn 0: 2 µg/mL
Bacterial strains; GN_093 A. baumannii XDR/PmxR
  MIC of antibiotic with OctC4 at concn 0: 0.5 µg/mL
  MIC of antibiotic with OctC4 at concn 0.125: 0.008 µg/mL
Bacterial strains; GN_093 A. baumannii XDR/PmxR, OctC4 0.25 μg/mL
  MIC of antibiotic with OctC4 at concn 0.25: 0.016 µg/mL
